# Experiments:
# [1] = molecular target: SB-204269 binding site; assay: Inhibition of [3H]SB-204269 binding in rat forebrain; format: tissue-based
# [2] = species: Rattus norvegicus; assay: Anticonvulsant activity was determined in rat maximal electroshock seizure threshold (MEST) model at 4 hour post dose.; format: functional
# [3] = species: Mus musculus; assay: Anticonvulsant activity was determined in mouse maximal electroshock seizure threshold (MEST) model at 1 hour post dose.; format: functional
# [4] = species: Mus musculus; assay: Anticonvulsant activity was determined in mouse maximal electroshock seizure threshold (MEST) model at 1 hour post dose; format: functional
# [5] = species: Rattus norvegicus; assay: Anticonvulsant activity was determined in rat maximal electroshock seizure threshold (MEST) model at 4 hour post dose; format: functional
# [6] = molecular target: SB-204269 binding site; assay: Binding affinity for [3H]SB-204269 in rat forebrain; format: tissue-based
SMILES,Log Ki [1],Increase [3] [%],other results
COc1cc(C(C)(C)C)ccc1C(=O)Nc1cccc2c1CCN(C)C2,-7.7,140,Increase [2]: 330%
CCc1cc(OC)c(C(=O)Nc2cccc3c2CCN(C)C3)cc1Cl,-7.9,100,–
COc1cc(C)c(Cl)cc1C(=O)Nc1cccc2c1CCN(C)C2,-7.6,50,–
COc1cc(C(C)(C)C)ccc1C(=O)Nc1ccc2c(c1)CCN(C)C2,-6.4,4,–
COc1cc(N)c(Cl)cc1C(=O)Nc1cccc2c1CN(C)CC2,-6.1,–,–
COc1cc(Cl)ccc1C(=O)Nc1cccc2c1CCN(C)C2,-6.1,–,–
COc1c(Cl)cc(Cl)cc1C(=O)Nc1cccc2c1CCN(C)C2,-5.4,–,–
CN1CCc2c(cccc2NC(=O)c2ccc(C(C)(C)C)cc2)C1,-6,–,–
CCc1ccc(C(=O)Nc2cccc3c2CCN(C)C3)c(OC)c1,-7.3,60,–
COc1ccccc1C(=O)Nc1cccc2c1CCN(C)C2,-5.8,–,–
COc1cc(C(C)(C)C)c(Cl)cc1C(=O)Nc1cccc2c1CCN(C)C2,-6.9,–,–
COc1ccc(Cl)cc1C(=O)Nc1cccc2c1CCN(C)C2,-7,20,–
CN1CCc2c(cccc2NC(=O)c2cccc(Cl)c2)C1,< -5,–,–
COc1cc([N+](=O)[O-])c(Cl)cc1C(=O)Nc1cccc2c1CCN(C)C2,-6.8,–,–
COc1ccc(Cl)cc1C(=O)Nc1ccc2c(c1)CN(C)CC2,-7.2,4,–
COc1cc(N)c(Cl)cc1C(=O)Nc1cccc2c1CCN(C)C2,-7.8,25,–
COc1cc(C(C)(C)C)ccc1C(=O)Nc1ccc2c(c1)CN(C)CC2,-7.6,130,Increase [2]: 110%
CC(=O)c1ccc2c(c1)[C@H](NC(=O)c1ccc(F)cc1)[C@@H](O)C(C)(C)O2 [CARABERSAT],–,–,Increase [4]: 100%; Increase [5]: 570%; Log Ki [6]: -7.3
